Earlier results, collected in patent US5846971A, “Oral antifungal composition” (Schering Corporation, priority 1997, dated 1998).

What was measured:
Aspergillis = conditions: in suspensions
Candida = conditions: in suspensions
Cryptococcus = conditions: in suspensions

For `CC[C@@H]([C@H](C)O)n1ncn(-c2ccc(N3CCN(c4ccc(OC[C@@H]5CO[C@@](Cn6cncn6)(c6ccc(F)cc6F)C5)cc4)CC3)cc2)c1=O` [the antifungal compound, (-)-(2R-cis)-4-[4-[4-[4-[[-5-(2,4-difluorophenyl)-tetrahydro-5-(1H-1,2,4-triazol-1-ylmethyl)furan-3-yl]methoxy]phenyl]-1-piperazinyl]phenyl]-2,-4-dihydro-2-[(S)-1-ethyl-2(S)-hydroxypropyl]-3H-1,2,4-triazol-3-one], the antifungal activity (Aspergillis) is given as “potent antifungal activity”, the antifungal activity (Candida) is given as “potent antifungal activity” and the antifungal activity (Cryptococcus) is given as “potent antifungal activity”. For the same compound, the water solubility was “extremely low water solubility”.
